Measurements reported in ChEMBL document CHEMBL1135367, “Evaluation of isotryptamine derivatives at 5-HT(2) serotonin receptors” (Bioorg Med Chem Lett, 2002).

Legend:
[1] = target: T1, 5-hydroxytryptamine receptor 2C (Homo sapiens, UniProt P28335); assay: Binding affinity towards human 5-hydroxytryptamine 2C receptor.
T1 sequence (P28335 whole entry): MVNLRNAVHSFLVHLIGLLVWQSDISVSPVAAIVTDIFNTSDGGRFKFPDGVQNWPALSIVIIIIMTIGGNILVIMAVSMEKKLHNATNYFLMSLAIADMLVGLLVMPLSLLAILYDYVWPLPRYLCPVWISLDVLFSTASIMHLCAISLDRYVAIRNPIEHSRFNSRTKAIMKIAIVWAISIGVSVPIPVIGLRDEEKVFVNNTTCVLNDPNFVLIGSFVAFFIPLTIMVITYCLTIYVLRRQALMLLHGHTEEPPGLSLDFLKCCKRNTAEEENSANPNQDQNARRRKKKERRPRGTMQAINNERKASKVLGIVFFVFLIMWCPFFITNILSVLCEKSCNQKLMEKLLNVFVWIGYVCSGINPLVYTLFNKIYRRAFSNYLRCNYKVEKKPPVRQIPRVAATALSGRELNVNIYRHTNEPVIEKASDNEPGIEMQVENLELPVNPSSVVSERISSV

[2] = target: Serotonin 2 receptors; 5-HT2a & 5-HT2c (Homo sapiens) (UniProt P28223+P28335); assay: Relative affinity for human 5-HT2C and 5-HT2A receptors; assay type: protein assay
[3] = target: T2, 5-hydroxytryptamine receptor 2A (Homo sapiens, UniProt P28223); assay: Displacement of [3H]DOB from human 5-hydroxytryptamine 2A receptor
[4] = target: T2, 5-hydroxytryptamine receptor 2A; assay: Displacement of [3H]ketanserin from human 5-hydroxytryptamine 2A receptor
[5] = target: T3, 5-hydroxytryptamine receptor 2A (Rattus norvegicus, UniProt P14842); assay: Tested for binding affinity towards rat 5-hydroxytryptamine 2A receptor using [3H]ketanserin as radioligand
[6] = target: T1, 5-hydroxytryptamine receptor 2C; assay: Tested for binding affinity towards human 5-hydroxytryptamine 2C receptor using [3H]mesulergine as radioligand
[7] = target: T1, 5-hydroxytryptamine receptor 2C; assay: Tested for binding affinity towards human 5-hydroxytryptamine 2C receptor using [3H]DOB as radioligand
[8] = target: T3, 5-hydroxytryptamine receptor 2A; assay: Tested for binding affinity towards rat 5-hydroxytryptamine 2A receptor using [3H]DOB as radioligand
[9] = target: T2, 5-hydroxytryptamine receptor 2A; assay: Tested for binding affinity towards human 5-hydroxytryptamine 2A receptor using [3H]5-HT as radioligand
[10] = target: T1, 5-hydroxytryptamine receptor 2C; assay: Tested for binding affinity towards human 5-hydroxytryptamine 2C receptor using [3H]5-HT as radioligand
[11] = target: T2, 5-hydroxytryptamine receptor 2A; assay: Tested for binding affinity towards human 5-hydroxytryptamine 2A receptor using [3H]DOB as radioligand
[12] = target: T2, 5-hydroxytryptamine receptor 2A; assay: Tested for binding affinity towards 5-hydroxytryptamine 2A receptor
[13] = target: T1, 5-hydroxytryptamine receptor 2C; assay: Tested for binding affinity towards 5-HT2c receptor

Serotonin 2 receptors; 5-HT2a & 5-HT2c (Homo sapiens), sequence (P28223 whole entry, looked up, one chain of several): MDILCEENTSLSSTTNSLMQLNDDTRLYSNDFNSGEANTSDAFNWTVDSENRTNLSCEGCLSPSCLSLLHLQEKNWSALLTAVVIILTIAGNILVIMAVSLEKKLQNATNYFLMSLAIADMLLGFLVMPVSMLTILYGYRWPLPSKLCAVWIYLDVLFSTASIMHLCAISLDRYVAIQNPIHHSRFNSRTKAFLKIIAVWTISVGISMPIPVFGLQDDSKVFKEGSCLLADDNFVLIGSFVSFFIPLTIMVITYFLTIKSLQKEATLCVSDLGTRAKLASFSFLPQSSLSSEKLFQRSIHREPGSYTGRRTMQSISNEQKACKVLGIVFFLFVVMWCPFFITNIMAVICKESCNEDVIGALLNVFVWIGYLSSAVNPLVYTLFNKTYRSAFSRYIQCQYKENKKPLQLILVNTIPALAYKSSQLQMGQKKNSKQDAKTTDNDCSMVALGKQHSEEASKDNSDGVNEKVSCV
T2 sequence (P28223 whole entry): as the sequence (P28223 whole entry, looked up, one chain of several) above
T3 sequence (P14842 whole entry): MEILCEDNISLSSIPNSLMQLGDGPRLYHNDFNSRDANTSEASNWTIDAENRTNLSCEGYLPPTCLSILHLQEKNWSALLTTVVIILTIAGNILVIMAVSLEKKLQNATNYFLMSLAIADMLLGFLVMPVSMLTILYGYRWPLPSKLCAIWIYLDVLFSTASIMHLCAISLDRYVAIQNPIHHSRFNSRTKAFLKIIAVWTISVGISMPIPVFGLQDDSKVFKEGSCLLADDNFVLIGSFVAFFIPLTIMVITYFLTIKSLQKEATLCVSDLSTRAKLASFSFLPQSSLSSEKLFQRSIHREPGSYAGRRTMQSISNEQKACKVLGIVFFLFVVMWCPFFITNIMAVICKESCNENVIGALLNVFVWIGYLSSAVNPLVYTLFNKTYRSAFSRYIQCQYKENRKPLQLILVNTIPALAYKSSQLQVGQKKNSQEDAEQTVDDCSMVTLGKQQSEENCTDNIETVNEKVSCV

Row | Selectivity [2] | Ki [3] [nM] | Ki [4] [nM] | SMILES | Ki [1] [nM] | other results
1 | 4 | 1300 | 5190 | COc1ccc2cc3n(c2c1)CCNC3 | 5160 | –
2 | 6.6 | 300 | 1000 | COc1cccc2cc3n(c12)CCNC3 | 1990 | –
3 | – | – | – | CC(N)Cc1c[nH]c2ccc3ccccc3c12 (stereo not given) | 9 | Ki [12]: 3 nM
4 | 1.6 | 330 | 630 | Clc1cccc2cc3n(c12)CCNC3 | 520 | –
5 | 10.7 | 930 | 5830 | COc1ccc2c(c1)cc1n2CCNC1 | 9930 | –
6 | – | – | 1250 | Cc1c2n(c3ccc(Cl)cc13)CCNC2 | – | Ki [13]: 450 nM
7 | 7.5 | 635 | 1040 | c1ccc2c(c1)cc1n2CCNC1 | 4780 | –
8 | 7 | 80 | 58 | Clc1ccc2cc3n(c2c1)CCNC3 | 560 | –
9 | 5.5 | 60 | 130 | COc1c2n(c3ccc(Cl)cc13)CCNC2 | 330 | –
10 | – | – | – | CC(CN)n1ccc2ccc3ccccc3c21 (stereo not given) | > 10000 | Ki [12]: 4300 nM
11 | – | – | – | CC(N)Cn1ccc2ccc3ccccc3c21 (stereo not given) | 42 | Ki [12]: 38 nM
12 | 4.6 | 320 | 1670 | Clc1ccc2c(c1)cc1n2CCNC1 | 1460 | –

Row | SMILES | Selectivity [2] | Ki [3] [nM] | Ki [4] [nM] | Ki [1] [nM] | other results
13 | C[C@H](N)Cn1ccc2cc(F)c(F)cc21 | 5.7 | – | – | 85 | Ki [5]: 320 nM; Ki [6]: 85 nM; Ki [7]: 3.9 nM; Ki [8]: 15 nM; Ki [9]: 12 nM; Ki [10]: 3.8 nM; Ki [11]: 39 nM
14 | COc1ccc2ccn(CCN(C)C)c2c1 | – | – | 1040 | 490 | –
15 | CN(C)CCn1ccc2ccccc21 | 1.1 | 650 | 600 | 720 | –
16 | CN(C)CCn1ccc2cc(F)c(F)cc21 | 1.3 | 230 | 640 | 300 | –
17 | c1ccc2c(c1)nc1n2CCNC1 | – | > 10000 | > 10000 | > 10000 | –
18 | COc1ccc2c(ccn2CCN(C)C)c1 | – | > 10000 | > 10000 | > 10000 | –
